Measurements as given in patent US7067697B2, “Cationic liposomes for gene transfer” (priority 1998, dated 2006).
Where two headings read alike, the source gives them in different places.

Experiments:
[1] = system: CD-1 mice; settings: mouse, in vivo
[2] = system: CD-1 mouse lungs; assay: In vivo transfection of CD-1 mice with i.v. lipoplex (pCMV-Luc), luciferase activity assay in organs; settings: for rank order of transfection activity in lungs: liposomes of pure cationic lipid, charge ratio 8:1 to 16:1, 12 hours after i.v.; for Relative Activity of MMET Analogues-Cholesterol Liposomes: cationic lipid:cholesterol 1:1 mol/mol, in vivo transfection to the lungs, MMET = 100; for transfection level versus trimethylammonium counterparts (DOTMA, DOTAP): 4:1 +/− charge ratio, pure cationic lipid liposomes
Procedure: Cationic liposomes of formulas (I-VI) were prepared from pure cationic lipids or as equimolar mixtures of a cationic lipid and neutral lipids, such as DOPE, or cholesterol, using extrusion or sonication methods. One hundred μmoles of a cationic lipid or one hundred μmoles each of a cationic lipid and a selected neutral lipid were dissolved in a round bottom flask. The organic solvent was then evaporated under vacuum at 45° C. to form a thin lipid film. The residual solvent was further removed under high vacuum for one hour. The lipid film was then suspended with 10 ml of endotoxin-free distilled water (Gibco, BRL, MD) at room temperature for one hour, and subsequently extruded using 0.8 μm, 0.4 μm and 0.2 μm pore size filters. The extruded multilammelar liposomes have sizes of 850 nm, 350 nm and 280 nm in diameter, respectively. Some of the extruded liposomes were further sonicated in a bath sonicator for 2-5 minutes to form unilamellar liposomes with a size of about 100 nm in diameter. The size of the liposomes were measured by 90° laser dynamic light scattering using a Zetamaster submicron particle analyzer.
(§1) For transfection in vivo, normal CD-1 mouse was used as a model. The charge ration of lipid to DNA (±) was used throughout the study, assuming that 25 μg of DNA contains about 75 nmoles of negative charges, and one nmole of quaternary ammonium cationic lipid contains one nmole of positive charges. To prepare lipoplex for transfection, 25 μg or an indicated amounts of pCMV DNA was diluted in 100 μl of distilled water (endotoxin screened, Gibco). The diluted DNA solution was added to a polystyrene tube containing an indicated amount of cationic liposomes in 100 μl and was mixed immediately. The complexes were kept at + room temperature for 30 minutes before being administered to the animals via tail vein.
Luciferase activity was measured in various organs, including lung, liver spleen, and heart from transfected animals, using a luciferase activity assay kit (Promega, Madison, Wis.) and a luminometer (Moonlight 3010). Organs were collected from the animals at 12 hours post transfection or at an indicated time after injection of lipoplex. About 0.2 g of liver were removed from the animal. One ml of 1× lysis buffer (Promega, Madison, Wis.), supplemented with 0.1% Triton-X100 was added to collected organs. Each organ was homogenized for 10-20 seconds using a handheld homogenizer (Dremel, Racine, Wis.) as it top speed (about 30,000 rpm). The samples were centrifuged in a microcentrifuge for three minutes. A 10 μL of the cleared supernatant, containing approximately 100-200 μg proteins, was measured for luciferase activity. Protein content in the supernatants was determined with BioRad dye reagent method, using albumin as a standard. The luciferase activities were normalized to the relative light unit per milligram of extracted protein.

[3] = system: CD-1 mice; type: in vivo; settings: for safety of lipoplex for CD-1 mice: 25 μg of DNA, pure cationic lipid liposomes, 1:16 charge ratio; for Number of animals died per group (n = 3): CD-1 mice (20 g), charge ratio 16:1+/−, counted after 48 h; for relative toxicity of liposome compositions: escalating doses of lipoplexes, groups of three animals, first 48 hours
Procedure: as §1
Table 2 below lists the number of animals that expired during the first 48 hours of the experiment period, when escalating doses of the lipoplexes were given to a group of three animals. Lipoplex containing 25 μg of DNA and DOTMA or MMET liposomes at 1:16 charge ratio or with a mixture of cholesterol-DOTMA, or cholesterol-MMET at 1:4 charge ratios appear to be quite safe for CD-1 mice. Higher charge ratios of lipid to DNA and high doses of lipoplex were required to reach a lethal dose. […] In general, MMET containing liposomes were less toxic than the ones containing DOTMA.

## CCCCCCCC/C=C\CCCCCCCC(=O)OCC(CNC(=O)[C@@H](N)CCCCN)OC(=O)CCCCCCC/C=C\CCCCCCCC (stereo partly drawn) [LADOP, N-[(2,3-dioleoyloxy)propyl]-L-lysinamide]
[1]
  tolerance of repeated intravenous doses: tolerated repeated intravenous doses of DNA/LADOP complex well
[2]; liposome/DNA complex delivered intravenously, after transfection
  duration of transgene expression in lungs (disappearing by): ≤ 48 h
[2]
  rank order of transfection activity in lungs: MMET≧DOTMA>MMES>DOTAP>LADOP
[2]; second injection at 48 hours after the first injection
  gene expression after second intravenous transfection: almost identical gene expression and duration

## CCCCCCCC/C=C\CCCCCCCCOCC[N+]1(CCOCCCCCCCC/C=C\CCCCCCCC)CCOCC1.[Cl-] [DODHEM, N,N-di-(2-oleyloxyethyl)-mopholinium chloride]
[2]
  Relative Activity of MMET Analogues-Cholesterol Liposomes: 74.54

## CCCCCCCC/C=C\CCCCCCCCOCC(CN1CCOCC1)OCCCCCCCC/C=C\CCCCCCCC (centres unmarked) [dioleyl morpholino propanediol, 1,2-dioleyl-N-3-morpholino propane]
[2]; formulated with cholesterol at 1:1 mole ratios, lungs
  in vivo transfection activity of MMET analogues (in words): only weak activity

## CCCCCCCC/C=C\CCCCCCCC(=O)OCC(C[N+](C)(C)C)OC(=O)CCCCCCC/C=C\CCCCCCCC (centres unmarked) [DOTAP, 1,2-dioleoyl-3-trimethylammonium propane, reference compound]
[2]
  Relative Activity of MMET Analogues-Cholesterol Liposomes: 28.14
  rank order of transfection activity in lungs: MMET≧DOTMA>MMES>DOTAP>LADOP

## CCCCCCCC/C=C\CCCCCCCC(=O)OCC(C[N+]1(C)CCOCC1)OC(=O)CCCCCCC/C=C\CCCCCCCC (centres unmarked) [MMES, N-3-methyl-1,2-dioleoyl-3-morpholinium propane]
[2]; lungs
  transfection level versus trimethylammonium counterparts (DOTMA, DOTAP): higher levels of transfection
[2]
  Relative Activity of MMET Analogues-Cholesterol Liposomes: 48.72
  rank order of transfection activity in lungs: MMET≧DOTMA>MMES>DOTAP>LADOP

## CCCCCCCC/C=C\CCCCCCCCOCC(C[N+](C)(C)C)OCCCCCCCC/C=C\CCCCCCCC.[Cl-] (centres unmarked) [DOTMA, 1,2,-dioleyl-3-N,N,N-trimethyl amino propane chloride, reference compound]
[3]
  safety of lipoplex for CD-1 mice: quite safe
  relative toxicity of liposome compositions: somewhere in between
[3]; DNA dosage 25 ug
  Number of animals died per group (n = 3): (0)
[3]; DNA dosage 30 ug
  Number of animals died per group (n = 3): (2)
[3]; DNA dosage 45 ug
  Number of animals died per group (n = 3): (3)
[2]
  rank order of transfection activity in lungs: MMET≧DOTMA>MMES>DOTAP>LADOP

## CCCCCCCC/C=C\CCCCCCCC(=O)OCC(C[N+]1(C)CCCC1)OC(=O)CCCCCCC/C=C\CCCCCCCC (centres unmarked) [MPES, N-3-methyl-1,2-dioleoul-3-pyrrolinum propane]
[2]
  Relative Activity of MMET Analogues-Cholesterol Liposomes: 1.87

## N-3-methyl-1,2-dioleyl-3-morpholinium propane chloride [MMET]
[3]
  safety of lipoplex for CD-1 mice: quite safe
  relative toxicity of liposome compositions: somewhere in between
[3]; DNA dosage 25 ug
  Number of animals died per group (n = 3): (0)
[3]; DNA dosage 30 ug
  Number of animals died per group (n = 3): (0)
[3]; DNA dosage 45 ug
  Number of animals died per group (n = 3): (1)
[2]; lungs
  transfection level versus trimethylammonium counterparts (DOTMA, DOTAP): higher levels of transfection
[2]
  Relative Activity of MMET Analogues-Cholesterol Liposomes: 100
  rank order of transfection activity in lungs: MMET≧DOTMA>MMES>DOTAP>LADOP
[2]; i.v. to mice, luciferase after 12 hours
  transfection activity versus prior art liposomes composed of DOTMA and/or DOTAP or DOTMA-cholesterol: much higher

## CCCCCCCC/C=C\CCCCCCCC[N+]1(CCCCCCCC/C=C\CCCCCCCC)CCOCC1.[Cl-] [DOMor, N,N-dioleylmorpholinium chloride]
[2]
  Relative Activity of MMET Analogues-Cholesterol Liposomes: 76.09

## CCCCCCCC/C=C\CCCCCCCCOCC(C[N+]1(C)CCCC1)OCCCCCCCC/C=C\CCCCCCCC (centres unmarked) [MPET, -3-methyl-1,2-dioleyl-3-pyrrolinium propane]
[2]
  Relative Activity of MMET Analogues-Cholesterol Liposomes: 55.49
